Assay results reported in patent publication US8518884B2, “Methods for treating atrial or ventricular arrhythmias by administering a G-protein alpha inhibitor” (Northwestern University, priority 2008, dated 2013).
Ends that are not written are not given here.

How the values were obtained:
[1] = tested on: left atrium; assay: Functional studies in pacing-induced CHF and control canine subjects: left atrial ERPs under autonomic manipulation; type: in vivo
Method: Canine subjects were divided into three groups. In group 1, CHF was induced by rapid ventricular pacing for 4 weeks (i.e. when the animals began to develop clinical heart failure. In group 2, pacing was performed for only 3 weeks. Group three were control canine subjects not subjected to rapid ventricular pacing. At the end of follow up period, high-density epicardial mapping was performed in the PVs, the PLA and the LAA. ERPs were obtained at multiple sites under the following conditions: a) baseline (BSL), b) left cervical vagal stimulation at 20 Hz (VS), c) beta-stimulation with isoproterenol (ISO), d) beta-blockade with propranolol (PROP) and e) beta-blockade+vagal stimulation (P+VS). VS caused significant mean ERP shortening in all three groups. […] PROP increased the VS effect on ERP in normal controls, but produced an attenuation of this effect in the CHF group (SEE FIG. 37). In this CHF model, after 4 weeks of pacing, an increased vagal effect on atrial refractoriness, an increased cumulative sympathetic effect, and a change in the sympatho-vagal interactions of the left atrium were observed. After 3 weeks of pacing, there is pronounced autonomic remodeling, with evidence of P as well S nerve upregulation in the PVs and left atrium. Both P and S upregulation are more pronounced in the PLA (and to a lesser extent in the PVs) than in the rest of the left atrium. While vagal responsiveness in the left atrium is unaltered at 3 weeks of pacing, it increases after 4 weeks of pacing. […] The autonomic remodeling becomes more pronounced with increasing duration of pacing. […] The increase in β1 binding is consistent with the increase in sympathetic innervation. […] The P upregulation noted in the left atrium in CHF is a compensatory response to S upregulation that occurs in response to CHF. […] However, since normal atria are more densely innervated with vagal fibers (than the ventricle) and also contain a significant amount of IKAch, the compensatory response is likely to be more vigorous in the atrium. The compensatory increase in vagal innervations, and resulting increase in IKAch, may contribute to increased AF substrate.

[2] = target: T1, M2R|Gαi/o interactions (Canis lupus familiaris, UniProt A0A8I3N4M6); assay: Gαx minigenes in the PLA: CCh-induced ERP shortening and AF 3 days after delivery; type: in vivo, dog
T1 construct: from tissue; host or cells: posterior left atrium of intact dogs (in vivo), 3 days after minigene injection and electroporation
T1 sequence (A0A8I3N4M6 1-466): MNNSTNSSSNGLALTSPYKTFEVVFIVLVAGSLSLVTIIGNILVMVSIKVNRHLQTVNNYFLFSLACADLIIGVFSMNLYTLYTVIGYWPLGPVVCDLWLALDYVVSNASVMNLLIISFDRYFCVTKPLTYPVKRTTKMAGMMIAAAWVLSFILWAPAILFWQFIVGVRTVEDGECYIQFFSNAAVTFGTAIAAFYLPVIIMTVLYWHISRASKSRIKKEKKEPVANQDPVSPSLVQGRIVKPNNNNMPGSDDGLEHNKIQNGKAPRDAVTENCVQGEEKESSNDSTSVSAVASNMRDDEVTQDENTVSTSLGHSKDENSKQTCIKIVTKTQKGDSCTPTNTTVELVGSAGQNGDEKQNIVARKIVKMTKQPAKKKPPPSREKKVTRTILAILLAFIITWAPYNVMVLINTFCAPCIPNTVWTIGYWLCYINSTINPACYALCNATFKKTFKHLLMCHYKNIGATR
Method: (§1) In a small number of pilot experiments (N=6), 1 mg of Gαi2ctp or GαRp minigene was injected subepicardially in the PLA (also see Results). In the remaining experiments, 15-20 mg of ct-Gαi2ctp (N=5), or 7-10 mg of Gαi2ctp+7-10 mg of Gαo1ctp (N=3), or GαRp (N=5) minigenes was injected in the PLA. Minigenes were made up to a volume of 4 ml and injected at multiple sites (6-8 equally spaced sites, 0.5-1 cm apart; a volume of approximately 0.5 ml was injected at each site) in the PLA so as to cover the entire area between the PVs. […] Immediately after gene injection, electroporation was performed at each site of injection as follows: two gold-plated, needle-style electrodes (10 mm length each) were placed at each gene injection site on the PLA, with an inter-electrode distance of 5 mm; electroporation with performed as previously described in the lung by Dean et al^14, with 8 pulses of is at […] (ECM 830, Harvard Bioscience, Holliston, Mass.). After minigene delivery, the chest was closed and the animal allowed to recover. Vagal stimulation and electrophysiological testing were not performed at baseline, in order to minimize damage to the vagus nerve.
CCh application: ERP shortening was assessed by direct application of CCh, a non-selective MR agonist, to the PLA. […] After each dose, ERP testing was performed in the PLA.
(§2) Atrial Fibrillation Inducibility: AF was defined as an atrial arrhythmia that was irregular in at least one of the recording electrodes. Regular atrial arrhythmias—e.g., atrial flutter and atrial tachycardia—were excluded from AF analysis. AF inducibility was measured as the inducibility index and duration of AF episodes after a single extrastimulus^8,15. As previously described, the inducibility index was defined as the number of AF episodes lasting more than 5 seconds induced by a single atrial extrastimulus divided by the total number of single atrial extrastimuli delivered to measure each ERP (at least 3 for each site)^8. The inducibility index was compared for each maneuver. Mean AF duration for each intervention was also assessed. All data was acquired by a 128-channel mapping system (Prucka Cardiolab, GE, WI) at a sampling rate of 977 Hz. All AF episodes induced during extrastimulus testing were stored for offline analysis. After all ERPs had been obtained, minigene injection was performed as described below.
(§3) Effective Refractory Periods. For each ERP, the pacing protocol was composed of a drive train (S1) of eight beats with a cycle length of 400 ms followed by an extrastimulus (S2). The S2 was decremented by 10 ms until loss of capture. […] Pacing was performed at an output current twice the threshold required for consistent capture of the tissue. The mean ERP was used as the representative ERP for each of the three sites as well as the entire left atrium.

[3] = target: T1, M2R|Gαi/o interactions; assay: Gαx minigenes in the PLA: vagal-induced ERP shortening, AF inducibility, AF duration and dominant frequency 3 days after delivery; type: in vivo, dog
Method: as §1
Baseline study: Three days after the initial study, the chest was re-opened. […] The PV plaque was placed circumferentially around the vein while the other two plaques were laid flat on the PLA and LAA epicardium. Effective refractory periods (ERPs) were obtained from 5, 6, and 4 sites on the PV, PLA, and LAA plaque, respectively, at baseline.
Vagal stimulation: For vagal stimulation, the left cervical vagus nerve was isolated, a bipolar stainless steel electrode was attached to the nerve, and stimulation was performed at 20 Hz (15-20V, 2-8 ms) (Grass S44G, Astromed Inc, R1). A vagal response was defined as: 1) sinus node slowing by at least 25% or 2) PR prolongation by more than 25% or 2:1 AV block^13. ERP testing was performed in the presence and absence of VS.
as §2
Offline Electrogram Analysis. Electrograms recorded during the maximum duration AF episodes obtained during extrastimulus testing were analyzed with dominant frequency (DF) analysis. DF is an estimation of activation rate calculated as the frequency with the most power in the power spectrum. The power spectrum is obtained from the Fast Fourier Transform of an electrogram after rectification and low pass filtering (20 Hz). These analyses were performed offline using Matlab (Mathworks, Natick, Mass.).
as §3

[4] = tested on: Gαi; assay: cp-Gα peptide delivery to the PLA with electroporation/sonoporation: ERPs and AF inducibility with vagal stimulation; type: in vivo, canine
Method: High-density epicardial mapping was performed in the PVs (2×2 electrodes), the PLA (7×3 electrodes) and the left atrial appendage (LAA) (7×3 electrodes) of canine subjects. Effective refractory periods (ERPs) were obtained at baseline and in response left cervical vagal stimulation (VS) (20 Hz). Cp-Gαi2 peptide (200-330 nM) was then applied topically to the epicardial aspect of the PLA in a canine subgroup. Cp-Gαi3 peptide (200-330 nM) was then applied topically to the epicardial aspect of the PLA of a second subgroup. Electroporation was performed after the application of peptide to enhance intracellular delivery of the peptide. ERPs were then re-measured in the presence and absence of VS.
In canine subjects, high-density epicardial mapping was performed in the PVs (2×2 electrodes), the PLA (7×3 electrodes) and the left atrial appendage (LAA) (7×3 electrodes). Effective refractory periods (ERPs) were obtained at baseline and in response left cervical vagal stimulation (VS) (20 Hz). FLAG-tcp-Gα peptides (200 nM-3 μM of cp-Gαi1/2 (N=8 canine subjects), cp-Gαi3 (N=4 canine subjects), or random-sequence cp-GαoR peptide (N=3 canine subjects) were injected into the PLA epicardium of the canine subjects followed by either sonoporation or electroporation. In a subgroup of the canine subjects, sonoporation or electroporation alone was performed without introduction of cp-Gαi peptide. ERPs were then re-measured in the presence and absence of VS. In a separate set of control animals, ERPs were measured before and after the administration of systemic autonomic blockade with propranolol (0.2 mg/kg)+atropine (0.04 mg/kg).

[5] = 200 nM-3 μM injected into PLA + sono/electroporation

For `CC(C)NCC(O)COc1cccc2ccccc12` (stereo not drawn) [PROP, propranolol], the “effect on ERPs” value ([1]; CHF canine subjects) was “ERP lengthening”, the “effect on the VS effect on ERP” value ([1]; CHF group) was “attenuation” and the “effect on ERPs” value ([1]; control canine subjects) was “significant shortening of ERPs”. For the same molecule, the “effect on the VS effect on ERP” value ([1]; normal controls) was “increased”.
In the case of IKNNLKDCGLF [Gαi2ctp], the “CCh-induced ERP shortening in the PLA” value ([2]; 3 μM, 10 μM CCh, compared to GαRp dogs) is reported as “significantly less”, the “CCh-induced ERP shortening in the PLA” value ([2]; 30 μM CCh, compared to GαRp dogs) is reported as “no significant difference” and the “CCh-induced ERP shortening in the PLA” value ([2]; CCh 3, 10 and 30 μM, compared to baseline ERP) is reported as “only at 30 μM CCh”. The “AF duration in response to CCh” value ([2]; vs. GαRp dogs) was “significantly less”, the “AF inducibility in response to CCh” value ([2]; vs. GαRp dogs) was “significantly less” and the “vagal-induced ERP shortening in the PLA” value ([3]; 3 days after minigene delivery, mean±SE) was 19.5 ± 5.0 ms. For the same molecule, the “vagal-induced ERP shortening in the PLA” value ([3]; compared to GαRcpt, FIG. 29A) was “attenuated”, the “vagal-induced ERP shortening in the PV and LAA” value ([3]; compared to GαRp dogs) was “no significant difference” and the “AF inducibility in response to VS” value ([3]; inducibility index, vs. GαRp dogs) was “significantly less”. For the same molecule, the “VS-induced increase in AF dominant frequency (DF)” value ([3]; vs. GαRp dogs) was “significantly less” and the “mean AF duration in response to VS” value ([3]; vs. GαRp dogs) was “significantly less”.
In the case of “cp-Gαi3: cell-penetrating poly-arginine tagged Gαi3 C-terminal peptide (IKNNLKECGLY; also: cell-penetrating poly-arginine tag, length and site not given here)”, the “VS-induced ERP shortening in the LAA” value [4, 5] is reported as “reduced”, the “VS-induced ERP shortening in the PLA” value [4, 5] is reported as “eliminated” and the “VS induced ERP shortening” value ([4]; 200-330 nM topical to PLA + electroporation, PLA, PV and LAA) is reported as “significantly attenuated”.
